These results are taken from patent US20250367166A1, “NEXT GENERATION DIPROVOCIMS THAT ACTIVATE THE INNATE AND ADAPTIVE IMMUNE RESPONSE” (The Scripps Research Institute, priority 2022, published 2025).

pEC50: −log10 of the molar value. Read-outs that look alike come from different tables or passages of the source.

Assay [1] has as its target TLR1/TLR2 (Homo sapiens, UniProt O60603+Q15399). Briefly: TNF-α release from PMA-differentiated human THP-1 cells (ELISA).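 On all read-outs here: cells exposed to graded compound concentrations for 4 h, TNF-α quantified in supernatant, LPS as positive and DMSO as negative control, values are duplicate means.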 Particulars: for Emax: THP-1, 4 h, read-out: Efficacy (magnitude) of response versus diprovocim-1 (100%), THP-1; for EC50: read-out: EC50 (nM) (THP-1): EC50 TNF-α release from human THP-1 cells. A general note: An ELISA detects its analyte on a solid surface through an enzyme-linked reagent.

For assay [2], the target named is TLR1/TLR2 (Mus musculus, UniProt Q9EPQ1+Q9QUN7). Briefly: TNF-α release from thioglycolate-elicited mouse peritoneal macrophages (ELISA). Particulars: for Emax: 4 h, read-out: Efficacy (magnitude) of response versus diprovocim-1 (100%), mouse macrophages; for EC50: read-out: EC50 (nM) (mouse): EC50 TNF-α release from mouse macrophages.
Sequence of TLR1/TLR2 (Mus musculus, UniProt Q9EPQ1+Q9QUN7) (Q9EPQ1 26-795): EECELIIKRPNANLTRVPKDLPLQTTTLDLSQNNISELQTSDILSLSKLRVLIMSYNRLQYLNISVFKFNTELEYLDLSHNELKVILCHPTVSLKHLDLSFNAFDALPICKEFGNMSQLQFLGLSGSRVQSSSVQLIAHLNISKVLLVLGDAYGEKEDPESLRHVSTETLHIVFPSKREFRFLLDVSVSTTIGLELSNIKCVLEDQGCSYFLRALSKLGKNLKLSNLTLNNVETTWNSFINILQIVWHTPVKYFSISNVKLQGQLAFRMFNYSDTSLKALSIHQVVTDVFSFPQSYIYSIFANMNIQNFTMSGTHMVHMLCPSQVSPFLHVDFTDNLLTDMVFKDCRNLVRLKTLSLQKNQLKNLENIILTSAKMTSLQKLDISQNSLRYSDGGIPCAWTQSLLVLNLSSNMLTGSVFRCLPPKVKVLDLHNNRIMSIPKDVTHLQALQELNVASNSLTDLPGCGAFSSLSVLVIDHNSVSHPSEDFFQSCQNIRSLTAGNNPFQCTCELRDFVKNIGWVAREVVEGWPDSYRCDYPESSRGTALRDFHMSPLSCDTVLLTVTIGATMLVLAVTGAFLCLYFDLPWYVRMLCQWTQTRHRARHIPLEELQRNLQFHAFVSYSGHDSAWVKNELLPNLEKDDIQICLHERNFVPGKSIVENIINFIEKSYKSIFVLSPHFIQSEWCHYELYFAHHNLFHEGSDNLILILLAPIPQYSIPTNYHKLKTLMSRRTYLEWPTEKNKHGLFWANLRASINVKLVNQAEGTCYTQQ
Sequence of TLR1/TLR2 (Mus musculus, UniProt Q9EPQ1+Q9QUN7) (Q9QUN7 25-784): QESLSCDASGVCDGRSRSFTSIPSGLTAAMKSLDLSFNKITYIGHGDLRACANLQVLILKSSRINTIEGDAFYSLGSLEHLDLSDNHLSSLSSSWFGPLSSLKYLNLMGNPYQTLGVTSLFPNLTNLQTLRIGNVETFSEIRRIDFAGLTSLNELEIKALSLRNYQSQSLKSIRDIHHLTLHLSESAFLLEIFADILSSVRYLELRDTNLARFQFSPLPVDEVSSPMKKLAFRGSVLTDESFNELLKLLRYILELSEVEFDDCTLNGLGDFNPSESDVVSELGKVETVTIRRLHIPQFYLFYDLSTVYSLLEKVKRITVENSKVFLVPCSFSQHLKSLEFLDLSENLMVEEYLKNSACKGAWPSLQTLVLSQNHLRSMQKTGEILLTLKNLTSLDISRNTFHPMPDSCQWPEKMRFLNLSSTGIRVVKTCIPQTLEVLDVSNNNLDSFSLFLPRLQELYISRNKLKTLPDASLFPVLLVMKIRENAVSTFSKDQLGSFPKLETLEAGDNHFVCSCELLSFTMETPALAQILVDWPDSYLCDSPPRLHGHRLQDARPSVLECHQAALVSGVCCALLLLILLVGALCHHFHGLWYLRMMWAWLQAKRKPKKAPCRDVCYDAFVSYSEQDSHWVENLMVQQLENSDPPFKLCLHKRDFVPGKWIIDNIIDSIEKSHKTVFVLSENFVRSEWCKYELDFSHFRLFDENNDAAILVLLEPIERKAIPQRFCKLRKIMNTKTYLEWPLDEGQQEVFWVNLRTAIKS

Sequence of TLR1/TLR2 (Homo sapiens, UniProt O60603+Q15399) (Q15399 25-786): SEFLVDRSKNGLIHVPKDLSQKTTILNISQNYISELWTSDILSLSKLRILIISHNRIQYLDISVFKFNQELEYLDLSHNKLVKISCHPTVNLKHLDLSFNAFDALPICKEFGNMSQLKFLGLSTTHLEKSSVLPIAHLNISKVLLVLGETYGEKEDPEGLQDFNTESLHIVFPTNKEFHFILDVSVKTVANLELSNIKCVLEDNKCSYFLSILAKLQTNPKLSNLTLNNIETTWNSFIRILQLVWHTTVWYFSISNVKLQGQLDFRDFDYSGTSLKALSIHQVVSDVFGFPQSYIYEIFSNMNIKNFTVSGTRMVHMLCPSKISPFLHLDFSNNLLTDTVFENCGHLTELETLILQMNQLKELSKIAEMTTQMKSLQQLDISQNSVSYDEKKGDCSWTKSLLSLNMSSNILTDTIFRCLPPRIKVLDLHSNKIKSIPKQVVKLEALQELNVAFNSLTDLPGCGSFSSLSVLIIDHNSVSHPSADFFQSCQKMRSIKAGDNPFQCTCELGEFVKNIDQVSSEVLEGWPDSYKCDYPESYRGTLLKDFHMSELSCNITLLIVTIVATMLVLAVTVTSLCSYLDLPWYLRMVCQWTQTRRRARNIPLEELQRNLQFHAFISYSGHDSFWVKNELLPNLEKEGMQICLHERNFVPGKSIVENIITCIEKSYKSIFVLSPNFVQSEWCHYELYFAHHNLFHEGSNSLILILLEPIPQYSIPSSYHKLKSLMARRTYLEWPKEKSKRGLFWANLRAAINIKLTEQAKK
Sequence of TLR1/TLR2 (Homo sapiens, UniProt O60603+Q15399) (O60603 21-784): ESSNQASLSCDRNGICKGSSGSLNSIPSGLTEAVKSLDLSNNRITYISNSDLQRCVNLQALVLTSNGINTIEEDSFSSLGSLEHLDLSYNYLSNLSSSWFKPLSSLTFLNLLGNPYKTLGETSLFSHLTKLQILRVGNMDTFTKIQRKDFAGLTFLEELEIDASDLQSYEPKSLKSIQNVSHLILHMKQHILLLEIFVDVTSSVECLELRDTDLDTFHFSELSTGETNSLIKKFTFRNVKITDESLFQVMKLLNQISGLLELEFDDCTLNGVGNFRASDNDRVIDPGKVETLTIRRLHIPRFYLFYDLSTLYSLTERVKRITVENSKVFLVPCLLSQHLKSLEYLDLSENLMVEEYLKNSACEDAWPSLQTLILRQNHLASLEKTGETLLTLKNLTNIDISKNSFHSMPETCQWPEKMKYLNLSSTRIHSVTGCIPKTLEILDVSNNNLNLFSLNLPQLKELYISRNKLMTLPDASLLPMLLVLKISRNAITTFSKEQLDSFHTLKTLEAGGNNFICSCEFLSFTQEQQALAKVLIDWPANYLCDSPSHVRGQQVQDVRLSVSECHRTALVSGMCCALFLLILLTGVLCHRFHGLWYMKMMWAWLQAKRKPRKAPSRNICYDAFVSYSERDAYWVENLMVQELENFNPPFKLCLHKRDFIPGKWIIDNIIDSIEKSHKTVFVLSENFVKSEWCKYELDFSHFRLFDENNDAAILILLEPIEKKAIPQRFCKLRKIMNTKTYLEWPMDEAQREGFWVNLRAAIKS

In general, EC50 refers to the midpoint of the concentration-response curve. Consider `CC(C)(C)OC(=O)Nc1ccc(C(=O)OCCCCCCCCCCCCNC(=O)[C@@H]2CN(C(=O)c3ccc(C(=O)N4C[C@@H](C(=O)N[C@H]5C[C@@H]5c5ccccc5)[C@H](C(=O)N[C@H]5C[C@@H]5c5ccccc5)C4)cc3)C[C@H]2C(=O)N[C@H]2C[C@@H]2c2ccccc2)cc1` [Compound 73, 12-((3S,4S)-1-(4-((3S,4S)-3,4-Bis(((1S,2R)-2-phenyl-cyclopropyl)carbamoyl)pyrrolidine-1-carbonyl)-benzoyl)-4-(((1S,2R)-2-phenylcyclopropyl)carbamoyl)-pyrrolidine-3-carboxamido)-dodecyl 4-((tert-butoxycarbonyl)amino)benzoate], for which the Emax at TLR1/TLR2 [1] was 90%; at TLR1/TLR2 [2] it was 540%. For the same compound, the EC50 at TLR1/TLR2 [1] (Table 6) is 0.57 nM; on TLR1/TLR2 [2] (Table 6), 30 nM.

As to `O=C(NCCCCCCCCCCO)[C@@H]1CN(C(=O)c2ccc(C(=O)N3C[C@@H](C(=O)N[C@H]4C[C@@H]4c4ccccc4)[C@H](C(=O)N[C@H]4C[C@@H]4c4ccccc4)C3)cc2)C[C@H]1C(=O)N[C@H]1C[C@@H]1c1ccccc1` [Compound 8, (3S,4S)-1-(4-((3S,4S)-3,4-Bis(((1S,2R)-2-phenyl-cyclopropyl)carbamoyl)pyrrolidine-1-carbonyl)benzoyl)-N^3-(10-hydroxydecyl)-N^4-((1S,2R)-2-phenylcyclopropyl)-pyrrolidine-3,4-dicarboxamide], the Emax at TLR1/TLR2 [1] was determined as 90%; on TLR1/TLR2 [2] it was 110%.

With `CC(C)(C)OC(=O)/C=C/C(=O)NCC(=O)OCCCCCCCCCCCCNC(=O)[C@@H]1CN(C(=O)c2ccc(C(=O)N3C[C@@H](C(=O)N[C@H]4C[C@@H]4c4ccccc4)[C@H](C(=O)N[C@H]4C[C@@H]4c4ccccc4)C3)cc2)C[C@H]1C(=O)N[C@H]1C[C@@H]1c1ccccc1` [Compound 81, (E)-tert-Butyl 4-((2-((12-((3S,4S)-1-(4-((3S,4S)-3,4-bis(((1S,2R)-2-phenylcyclopropyl)carbamoyl)-pyrrolidine-1-carbonyl)benzoyl)-4-(((1S,2R)-2-phenylcyclopropyl)carbamoyl)pyrrolidine-3-carboxamido)dodecyl)oxy)-2-oxoethyl)amino)-4-oxobut-2-enoate], the Emax on TLR1/TLR2 [1] amounted to 90%; on TLR1/TLR2 [2], 110%. For the same compound, the values for the EC50 on TLR1/TLR2 [1] (Table 6) and at TLR1/TLR2 [2] (Table 6) were 2 nM and 62 nM, respectively.

The pEC50 is −log10 of the EC50, conventionally taken in molar units. Regarding `O=C(O)CCOCCOCCOCCNC(=O)[C@@H]1CN(C(=O)c2ccc(C(=O)N3C[C@@H](C(=O)N[C@H]4C[C@@H]4c4ccccc4)[C@H](C(=O)N[C@H]4C[C@@H]4c4ccccc4)C3)cc2)C[C@H]1C(=O)N[C@H]1C[C@@H]1c1ccccc1` [Compound 31, 1-((3S,4S)-1-(4-((3S,4S)-3,4-Bis(((1S,2R)-2-phenylcyclopropyl)carbamoyl)pyrrolidine-1-carbonyl)benzoyl)-4-(((1S,2R)-2-phenylcyclopropyl)-carbamoyl)pyrrolidin-3-yl)-1-oxo-5,8,11-trioxa-2-azatetradecan-14-oic acid], the EC50 at TLR1/TLR2 [1] (Table 2) turned out to be 100 nM. The compound further gave a pEC50 at TLR1/TLR2 [2] of under 5.30.

As for `CC(C)(C)OC(=O)N[C@@H](Cc1ccccc1)C(=O)OCCCCCCCCCCCCNC(=O)[C@@H]1CN(C(=O)c2ccc(C(=O)N3C[C@@H](C(=O)N[C@H]4C[C@@H]4c4ccccc4)[C@H](C(=O)N[C@H]4C[C@@H]4c4ccccc4)C3)cc2)C[C@H]1C(=O)N[C@H]1C[C@@H]1c1ccccc1` [Compound 63, (S)-12-((3S,4S)-1-(4-((3S,4S)-3,4-Bis(((1S,2R)-2-phenylcyclopropyl)carbamoyl)pyrrolidine-1-carbonyl)-benzoyl)-4-(((1S,2R)-2-phenylcyclopropyl)carbamoyl)-pyrrolidine-3-carboxamido)-dodecyl 2-((tert-butoxy-carbonyl)amino)-3-phenylpropanoate], the Emax is 100% at TLR1/TLR2 [1] and 220% at TLR1/TLR2 [2]. The EC50 at TLR1/TLR2 [1] (Table 5) and on TLR1/TLR2 [2] (Table 5) was 40 nM in each case.

On to `CC(C)(C)OC(=O)COCCCCCCCCCCCCNC(=O)[C@@H]1CN(C(=O)c2ccc(C(=O)N3C[C@@H](C(=O)N[C@H]4C[C@@H]4c4ccccc4)[C@H](C(=O)N[C@H]4C[C@@H]4c4ccccc4)C3)cc2)C[C@H]1C(=O)N[C@H]1C[C@@H]1c1ccccc1` [Compound 49, tert-Butyl 2-((12-((3S,4S)-1-(4-((3S,4S)-3,4-bis(((1S,2R)-2-phenylcyclopropyl)carbamoyl)-pyrrolidine-1-carbonyl)benzoyl)-4-(((1S,2R)-2-phenylcyclopropyl)carbamoyl)pyrrolidine-3-carboxamido)dodecyl)oxy)acetate], for which the Emax is 100% at TLR1/TLR2 [1] and 270% at TLR1/TLR2 [2]. Besides, the EC50 on TLR1/TLR2 [1] (Table 3) stood at 15 nM; at TLR1/TLR2 [2] (Table 3), 1.8 nM.

For the compound `O=C(NCCCCCCCCCCCCO)[C@@H]1CN(C(=O)c2ccc(C(=O)N3C[C@@H](C(=O)N[C@H]4C[C@@H]4c4ccccc4)[C@H](C(=O)N[C@H]4C[C@@H]4c4ccccc4)C3)cc2)C[C@H]1C(=O)N[C@H]1C[C@@H]1c1ccccc1` [Compound 7, (3S,4S)-1-(4-((3S,4S)-3,4-Bis(((1S,2R)-2-phenyl-cyclopropyl)carbamoyl)pyrrolidine-1-carbonyl)-benzoyl)-N^3-(12-hydroxydodecyl)-N^4-((1S,2R)-2-phenyl-cyclo-propyl)pyrrolidine-3,4-dicarboxamide], the Emax on TLR1/TLR2 [1] was 90%; on TLR1/TLR2 [2] it was 110%. Further, the figures for the EC50 at TLR1/TLR2 [1] (Table 3) and on TLR1/TLR2 [2] (Table 3) were 0.21 nM and 1.2 nM, respectively.

As to `CC(C)(C)OC(=O)c1ccc(C(=O)OCCCCCCCCCCCCNC(=O)[C@@H]2CN(C(=O)c3ccc(C(=O)N4C[C@@H](C(=O)N[C@H]5C[C@@H]5c5ccccc5)[C@H](C(=O)N[C@H]5C[C@@H]5c5ccccc5)C4)cc3)C[C@H]2C(=O)N[C@H]2C[C@@H]2c2ccccc2)cc1` [Compound 77, 12-((3S,4S)-1-(4-((3S,4S)-3,4-Bis(((1S,2R)-2-phenylcyclopropyl)carbamoyl)pyrrolidine-1-carbonyl)benzoyl)-4-(((1S,2R)-2-phenyl-cyclopropyl)carbamoyl)pyrrolidine-3-carboxamido)-dodecyl tert-butyl terephthalate], the results for the Emax at TLR1/TLR2 [1] and at TLR1/TLR2 [2] were 90% and 190%, respectively. In addition, the EC50 came out at 165 nM at TLR1/TLR2 [1] (Table 6) and 785 nM at TLR1/TLR2 [2] (Table 6).

Take `CC(C)(C)OC(=O)N1CCC[C@H]1C(=O)OCCCCCCCCCCCCNC(=O)[C@@H]1CN(C(=O)c2ccc(C(=O)N3C[C@@H](C(=O)N[C@H]4C[C@@H]4c4ccccc4)[C@H](C(=O)N[C@H]4C[C@@H]4c4ccccc4)C3)cc2)C[C@H]1C(=O)N[C@H]1C[C@@H]1c1ccccc1` [Compound 60, (S)-2-(12-((3S,4S)-1-(4-((3S,4S)-3,4-Bis(((1S,2R)-2-phenylcyclopropyl)carbamoyl)pyrrolidine-1-carbonyl)-benzoyl)-4-(((1S,2R)-2-phenylcyclopropyl)carbamoyl)-pyrrolidine-3-carboxamido)-dodecyl) 1-tert-butyl pyrrolidine-1,2-dicarboxylate]: the Emax at TLR1/TLR2 [1] came to 90%; at TLR1/TLR2 [2] it was 100%. Moreover, the EC50 was 0.94 nM at TLR1/TLR2 [1] (Table 5) and 9.2 nM at TLR1/TLR2 [2] (Table 5).

For the compound `O=C(NCc1ccccc1)[C@@H]1CN(C(=O)c2ccc(C(=O)N3C[C@@H](C(=O)N[C@H]4C[C@@H]4c4ccccc4)[C@H](C(=O)N[C@H]4C[C@@H]4c4ccccc4)C3)cc2)C[C@H]1C(=O)N[C@H]1C[C@@H]1c1ccccc1` [Compound 22, (3S,4S)—N^3-Benzyl-1-(4-((3S,4S)-3,4-bis(((1S,2R)-2-phenylcyclopropyl)carbamoyl)pyrrolidine-1-carbonyl)-benzoyl)-N^4-((1S,2R)-2-phenylcyclopropyl)pyrrolidine-3,4-dicarboxamide], the EC50 at TLR1/TLR2 [1] (Table 1) amounted to 7 nM; at TLR1/TLR2 [2] (Table 1), 50 nM.

As to `CC(C)(C)OC(=O)CNC(=O)CCCCCCCCCCCNC(=O)[C@@H]1CN(C(=O)c2ccc(C(=O)N3C[C@@H](C(=O)N[C@H]4C[C@@H]4c4ccccc4)[C@H](C(=O)N[C@H]4C[C@@H]4c4ccccc4)C3)cc2)C[C@H]1C(=O)N[C@H]1C[C@@H]1c1ccccc1` [Compound 14, tert-Butyl (12-((3S,4S)-1-(4-((3S,4S)-3,4-bis(((1S,2R)-2-phenylcyclopropyl)carbamoyl)-pyrrolidine-1-carbonyl)-benzoyl)-4-(((1S,2R)-2-phenylcyclopropyl)carbamoyl)pyrrolidine-3-carboxamido)dodecanoyl)glycinate], the Emax was determined as 100% at TLR1/TLR2 [1] and 70% on TLR1/TLR2 [2]. Also, the EC50 amounted to 20 nM on TLR1/TLR2 [1] (Table 1) and 25 nM on TLR1/TLR2 [2] (Table 1).

For the compound `O=C(O)CNC(=O)CCCCCCCCCCCNC(=O)[C@@H]1CN(C(=O)c2ccc(C(=O)N3C[C@@H](C(=O)N[C@H]4C[C@@H]4c4ccccc4)[C@H](C(=O)N[C@H]4C[C@@H]4c4ccccc4)C3)cc2)C[C@H]1C(=O)N[C@H]1C[C@@H]1c1ccccc1` [Compound 15, (12-((3S,4S)-1-(4-((3S,4S)-3,4-Bis(((1S,2R)-2-phenylcyclopropyl)carbamoyl)pyrrolidine-1-carbonyl)benzoyl)-4-(((1S,2R)-2-phenylcyclopropyl)carbamoyl)pyrrolidine-3-carboxamido)-dodecanoyl)glycine], the Emax came out at 110% at TLR1/TLR2 [1] and 30% on TLR1/TLR2 [2]. Also, the EC50 was 200 nM on TLR1/TLR2 [1] (Table 1) and 1200 nM on TLR1/TLR2 [2] (Table 1).
